Read-outs that look alike come from different tables or passages of the source.
Key:
[1] = target: T1, Porcn (Mus musculus, UniProt Q9JJJ7); test: Suppression of Wnt signaling in L-Wnt-STF cells; assay type: cell-based
T1 sequence (Q9JJJ7 1-461): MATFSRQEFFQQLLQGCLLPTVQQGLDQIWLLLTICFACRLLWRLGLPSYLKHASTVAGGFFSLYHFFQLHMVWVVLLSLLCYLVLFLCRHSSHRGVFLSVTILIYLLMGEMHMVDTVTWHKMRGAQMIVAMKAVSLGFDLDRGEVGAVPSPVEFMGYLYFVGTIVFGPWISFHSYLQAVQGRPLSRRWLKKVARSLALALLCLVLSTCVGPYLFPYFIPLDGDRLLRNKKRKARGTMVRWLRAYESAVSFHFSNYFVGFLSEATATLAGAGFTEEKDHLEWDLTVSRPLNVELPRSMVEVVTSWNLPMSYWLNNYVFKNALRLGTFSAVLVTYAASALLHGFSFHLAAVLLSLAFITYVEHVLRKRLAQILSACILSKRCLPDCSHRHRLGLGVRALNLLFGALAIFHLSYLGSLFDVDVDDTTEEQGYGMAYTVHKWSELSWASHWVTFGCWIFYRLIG

[2] = Stability in murine plasma; assay type: in vitro ADME; details: compared with 6
[3] = Metabolic stability in murine liver S9 fractions; assay type: in vitro ADME; details: for stability (in words): compared with 6
[4] = test system: Dvl2/3 phosphorylation in HeLa cells; test: Western blot of Dvl2/3 phosphorylation in HeLa cells; assay type: cell-based; details: 24 h incubation
[5] = test system: LRP6 phosphorylation in HeLa cells; test: Western blot of LRP6 phosphorylation in HeLa cells; assay type: cell-based; details: 24 h incubation
[6] = human plasma; cited from earlier work
[7] = target: T1, Porcn; details: L-Wnt-STF cells; cited from earlier work
[8] = murine liver S9 fractions; cited from earlier work
[9] = murine plasma; cited from earlier work

## O=C(CSc1nnc(-c2ccncc2)o1)Nc1ccc(-c2cccnc2)cc1 [IWP-L1]
[1]; at low micromolar concentrations
  activity against Wnt signaling: inactive

## O=C(Cn1cc(-c2ccncc2)nn1)Nc1ccc(-c2ccccc2)cn1 [IWP-N3]
[2]
  stability (in words): much more stable
[3]
  stability (in words): much more stable

## O=C(CSc1nnc(-c2ccncc2)n1-c1ccccc1)Nc1ccc(-c2cccnc2)cc1 [IWP-L2]
[1]
  EC50: 0.3 nM
[2]
  stability (in words): low stability
[3]
  stability (in words): low stability

## O=C(Cn1nnc(-c2ccncc2)c1-c1ccccc1)Nc1ccc(-c2ccccc2)cn1 [IWP-O1]
[4]
  phosphorylation of Dvl2/3: effectively suppressed
[1]; L-Wnt-STF cells
  times more potent than LGK974: 2.5 times
[5]
  phosphorylation of LRP6: suppressed
[2]
  stability (in words): much more stable
[3]; 4 h
  degradation after incubation: did not observe any degradation
[3]
  stability (in words): much more stable

## O=C(CSc1nc2c(c(=O)n1-c1ccccc1)SCC2)Nc1ccc(-c2ccccc2)cn1 [IWP-L6]
[6]
  stability (in words): good stability
[7]
  fold more potent than 1 (IWP-2): 60 fold
[8]
  Half-life: 26 min
[9]
  Half-life: <5 min

## Cc1cc(-c2ncc(CC(=O)Nc3ccc(-c4cnccn4)cn3)cc2C)ccn1 [LGK974, reference compound]
[1]
  EC50: 0.2 nM

## Cc1ccc2nc(NC(=O)CSc3nc4c(c(=O)n3-c3ccccc3)SCC4)sc2c1 [IWP-2, reference compound]
[1]; L-Wnt-STF cells
  fold decrease of potency relative to 17: 5 fold

— publication PMC5142825 (Bioorganic & medicinal chemistry letters, 2016)
